Consider 7 compounds from patent publication US12655106B2 (Eikonizo Therapeutics, Inc., priority 2021, dated 2026).

By IC50 is commonly meant the midpoint of a concentration-inhibition curve. The low end stands for inhibition by little substance, the high end for a need for much substance.

Molecules are shown by their SMILES.

One assay has as its target T1, Full length Human HDAC6 (Homo sapiens, UniProt Q9UBN7).
T1 construct: Full length Human HDAC6; FLAG (C); host or cells: baculovirus expression system
T1 sequence (Q9UBN7 1-1215): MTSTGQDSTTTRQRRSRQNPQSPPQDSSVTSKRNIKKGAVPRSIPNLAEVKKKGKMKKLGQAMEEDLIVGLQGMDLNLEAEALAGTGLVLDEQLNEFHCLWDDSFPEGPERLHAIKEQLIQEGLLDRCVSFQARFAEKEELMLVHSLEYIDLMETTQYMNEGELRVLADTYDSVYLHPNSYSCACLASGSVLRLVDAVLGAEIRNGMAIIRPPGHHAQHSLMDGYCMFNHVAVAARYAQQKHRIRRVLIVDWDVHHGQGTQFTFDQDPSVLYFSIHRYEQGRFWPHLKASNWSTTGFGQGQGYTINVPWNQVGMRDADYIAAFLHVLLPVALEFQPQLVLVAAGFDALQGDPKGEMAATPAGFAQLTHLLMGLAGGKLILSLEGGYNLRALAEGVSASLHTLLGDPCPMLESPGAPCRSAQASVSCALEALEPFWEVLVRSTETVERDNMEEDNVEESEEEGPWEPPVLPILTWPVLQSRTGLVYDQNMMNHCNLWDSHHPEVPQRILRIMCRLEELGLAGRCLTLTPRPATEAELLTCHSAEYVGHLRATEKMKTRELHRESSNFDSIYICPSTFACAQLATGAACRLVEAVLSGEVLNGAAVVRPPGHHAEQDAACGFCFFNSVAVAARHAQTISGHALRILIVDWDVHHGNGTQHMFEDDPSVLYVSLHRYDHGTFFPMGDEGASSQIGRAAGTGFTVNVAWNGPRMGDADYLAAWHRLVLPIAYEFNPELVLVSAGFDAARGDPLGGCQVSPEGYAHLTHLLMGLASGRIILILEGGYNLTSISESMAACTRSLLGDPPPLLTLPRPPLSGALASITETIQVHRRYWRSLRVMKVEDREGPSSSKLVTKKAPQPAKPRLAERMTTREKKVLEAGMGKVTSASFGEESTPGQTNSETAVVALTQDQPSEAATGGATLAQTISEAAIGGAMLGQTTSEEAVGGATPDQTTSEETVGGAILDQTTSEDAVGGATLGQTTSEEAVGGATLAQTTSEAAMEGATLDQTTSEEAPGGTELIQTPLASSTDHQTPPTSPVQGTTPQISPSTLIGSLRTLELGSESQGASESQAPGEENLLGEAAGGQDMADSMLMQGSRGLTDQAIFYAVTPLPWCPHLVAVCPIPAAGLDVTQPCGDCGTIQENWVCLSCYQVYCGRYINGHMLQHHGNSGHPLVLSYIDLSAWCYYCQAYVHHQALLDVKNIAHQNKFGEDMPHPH
The assay is described as follows: Caliper endpoint assay for HDAC enzymatic activity (HDAC6). Type of assay: biochemical. The note with it: for IC50: in vitro enzymatic, Caliper endpoint assay, 30 min pre-incubation, 1 μM substrate peptide; for Selectivity (6 v 8): ratio of HDAC8 IC50/HDAC6 IC50.

In the next assay the target is T2, Full length Human HDAC8 (Homo sapiens, UniProt Q9BY41).
T2 construct: Full length Human HDAC8; HIS (N); host or cells: baculovirus expression system
T2 sequence (Q9BY41 1-377): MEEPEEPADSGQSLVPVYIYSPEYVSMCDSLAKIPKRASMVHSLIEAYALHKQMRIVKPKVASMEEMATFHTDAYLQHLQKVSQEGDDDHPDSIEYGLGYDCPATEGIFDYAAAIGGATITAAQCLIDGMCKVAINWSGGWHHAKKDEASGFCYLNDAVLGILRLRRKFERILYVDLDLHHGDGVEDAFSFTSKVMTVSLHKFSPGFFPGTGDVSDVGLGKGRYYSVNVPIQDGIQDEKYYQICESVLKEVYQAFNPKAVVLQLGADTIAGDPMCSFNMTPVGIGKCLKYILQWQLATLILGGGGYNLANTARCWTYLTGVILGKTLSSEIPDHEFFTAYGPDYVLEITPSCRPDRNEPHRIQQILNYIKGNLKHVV
Kind of assay: Caliper endpoint assay for HDAC enzymatic activity (HDAC8). The note with it: in vitro enzymatic, 30 min pre-incubation, 1 μM substrate peptide. Type of assay: biochemical.

As for `CC(=O)N1CCC[C@]2(C1)C[C@@H](N1CCc3cc(C(=O)NO)cc(F)c3C1)C2` (single isomer, unassigned) [Compound 349, 2-(6-acetyl-6-azaspiro[3.5]nonan-2-yl)-8-fluoro-3,4-dihydro-1H-isoquinoline-6-carbohydroxamic acid], the results for the IC50 against Full length Human HDAC6 and against Full length Human HDAC8 were 1 to 100 nM and 10000 to 100000 nM, respectively. For the same compound, at Full length Human HDAC6, the “Selectivity (6 v 8)” value is recorded as “IV (IV: >100-1000)”.
The corresponding values for `O=C(NO)c1cc(F)c2c(c1)CCN([C@@H]1CC[C@]13CCOC3)C2` (single isomer, unassigned) [Compound 318] are 1 to 100 nM, 10000 to 100000 nM and “V (V: >1000)”.
The corresponding values for `CC[C@H]1Cc2c(F)cc(C(=O)NO)cc2CN1C[C@@H]1C[C@H]2CC[C@@H](C1)N2C` (single isomer, unassigned) [Compound 573] are 1 to 100 nM, 1000 to 10000 nM and “IV (IV: >100-1000)”.
The corresponding values for `CC[C@H]1Cc2c(F)cc(C(=O)NO)cc2CN1C1CC(C)(C)C1` (single isomer, unassigned) [Compound 593] are 100 to 1000 nM, 10000 to 100000 nM and “IV (IV: >100-1000)”.
With `CC(=O)N1CCC[C@]2(C1)C[C@H](N1CCc3cc(C(=O)NO)cc(F)c3C1)C2` (single isomer, unassigned) [Compound 348, 2-(6-acetyl-6-azaspiro[3.5]nonan-2-yl)-8-fluoro-3,4-dihydro-1H-isoquinoline-6-carbohydroxamic acid], at Full length Human HDAC6, the IC50 was in the range of 1 to 100 nM and the “Selectivity (6 v 8)” value was “IV (IV: >100-1000)”. This compound also returned an IC50 against Full length Human HDAC8 of 10000 to 100000 nM.
In the same order, the values of `O=C(NO)c1cc(F)c2c(c1)CCN(C1CCC3(CNC3)C1)C2` (stereo not drawn) [Compound 388, 8-fluoro-N-hydroxy-2-(2-azaspiro[3.4]octan-6-yl)-1,2,3,4-tetrahydroisoquinoline-6-carboxamide] are 1 to 100 nM, “IV (IV: >100-1000)” and 10000 to 100000 nM.
The corresponding values for `O=C(NO)c1cc(F)c2c(c1)CCN(CC1CC3(CCNCC3)C1)C2` [Compound 468, 2-(7-azaspiro[3.5]nonan-2-ylmethyl)-8-fluoro-3,4-dihydro-1H-isoquinoline-6-carbohydroxamic acid] are 1 to 100 nM, “V (V: >1000)” and 10000 to 100000 nM.
